In assay [1] the target is T1, FAAH (Rattus norvegicus, UniProt P97612).
T1 construct: Frozen brains (without cerebellum) from Wistar rats were used; from tissue; host or cells: Wistar rat brain (without cerebellum), washed membrane pellets
T1 sequence (P97612 1-579): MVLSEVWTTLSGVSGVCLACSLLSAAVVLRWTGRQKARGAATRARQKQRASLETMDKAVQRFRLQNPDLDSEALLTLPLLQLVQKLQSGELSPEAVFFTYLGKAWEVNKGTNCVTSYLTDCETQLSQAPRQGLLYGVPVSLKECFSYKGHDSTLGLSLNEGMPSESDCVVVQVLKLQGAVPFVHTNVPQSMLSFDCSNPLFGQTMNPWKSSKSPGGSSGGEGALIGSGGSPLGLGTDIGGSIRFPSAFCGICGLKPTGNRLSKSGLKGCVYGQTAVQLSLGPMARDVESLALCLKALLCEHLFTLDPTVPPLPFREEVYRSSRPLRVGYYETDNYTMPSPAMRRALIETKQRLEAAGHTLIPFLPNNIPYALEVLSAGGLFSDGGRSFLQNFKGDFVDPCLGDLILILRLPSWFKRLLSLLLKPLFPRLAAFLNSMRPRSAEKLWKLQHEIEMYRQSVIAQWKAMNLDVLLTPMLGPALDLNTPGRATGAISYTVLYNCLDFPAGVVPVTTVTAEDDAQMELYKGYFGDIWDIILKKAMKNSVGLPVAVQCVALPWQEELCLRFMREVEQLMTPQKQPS
The assay can be described thus: In vitro FAAH activity in rat brain membranes, 3H-AEA substrate, % of control. The assay is classed as biochemical, Wistar rats. Conditions: low value = strong inhibitor; for In Vitro FAAH activity, 100 nM: 100 nM test compound; for In Vitro 100 nM (FAAH activity, % of control): rat brain membranes, compound at 100 nM. A digest of the protocol: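 FAAH activity measured as 3H-ethanolamine released from 2 μM [3H]AEA over 10 min by rat brain membrane preparation, after 15 min 37 °C preincubation with test compound at 10 or 0.1 μM. Charcoal-separated supernatant scintillation-counted; values expressed as % of control minus no-protein blank.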

For assay [2], the target named is T2, FAAH (Mus musculus, UniProt O08914).
T2 construct: A fragment of liver, left lung lobe and brain without cerebellum were removed; from tissue; host or cells: male NMRI mice; brain (without cerebellum) and liver homogenates
T2 sequence (O08914 1-579): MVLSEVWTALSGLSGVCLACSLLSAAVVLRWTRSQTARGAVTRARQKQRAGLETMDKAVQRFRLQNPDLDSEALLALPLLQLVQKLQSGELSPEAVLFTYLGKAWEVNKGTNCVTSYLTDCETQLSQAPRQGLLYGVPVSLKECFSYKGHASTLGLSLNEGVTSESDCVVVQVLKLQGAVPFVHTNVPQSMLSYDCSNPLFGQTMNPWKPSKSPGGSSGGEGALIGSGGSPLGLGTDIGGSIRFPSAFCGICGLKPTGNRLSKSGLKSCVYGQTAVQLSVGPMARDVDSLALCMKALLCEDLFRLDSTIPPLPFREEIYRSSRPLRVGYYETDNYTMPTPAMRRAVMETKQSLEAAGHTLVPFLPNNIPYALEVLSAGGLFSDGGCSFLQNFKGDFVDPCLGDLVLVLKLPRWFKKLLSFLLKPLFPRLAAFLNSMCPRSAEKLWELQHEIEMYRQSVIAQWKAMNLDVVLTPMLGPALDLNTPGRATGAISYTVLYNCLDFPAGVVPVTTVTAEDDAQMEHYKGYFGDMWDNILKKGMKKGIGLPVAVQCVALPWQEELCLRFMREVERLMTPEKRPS
Put plainly: In vivo FAAH inhibition after oral dosing, remaining activity in brain homogenate (BRh, central nervous tissue). Set-up: species or system NMRI mice. To be noted: brain homogenate; for In Vivo BRh 3 mg·kg 8 h (remaining FAAH activity, % of control): 8 h after dosing, low value = strong inhibitor. In a few lines:
(§1)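 Remaining FAAH activity is given as % of vehicle-treated controls after blank subtraction, measured by radiolabelled AEA hydrolysis (2 μM AEA, 5 nM 3H-AEA, 37 °C) in brain (10 min) or liver (7 min) homogenates. These came from fasted male NMRI mice dosed orally at 30 or 3 mg/kg.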

Assay [3] has as its target T2, FAAH. The assay can be described thus: In vivo FAAH inhibition after oral dosing, remaining activity in liver homogenate (LVh, peripheral tissue). Set-up: species or system NMRI mice. Conditions: liver homogenate; for In Vivo LVh 3 mg·kg 8 h (remaining FAAH activity, % of control): 8 h after dosing, low value = strong inhibitor. A digest of the protocol:
as §1

Each structure is given as a SMILES string.

On to `O=C(N1CCN(Cc2ccc(F)cc2)CC1)n1nnc2ccccc21` [Compound 121, (1H-benzo[d][1,2,3]triazol-1-yl)(4-(4-fluorobenzyl)piperazin-1-yl)methanone], for which the “In Vitro FAAH activity, 100 nM” value at FAAH [1] is listed as 0 % of control. Moreover, at FAAH [2], the “In Vivo BRh 3 mg/kg 8 h, remaining FAAH activity” value is on record as 118.6 % of control. Moreover, the “In Vivo LVh 3 mg/kg 8 h, remaining FAAH activity” value on FAAH [3] is listed as 116.1 % of control.
Regarding `CC1(C)COCN1C(=O)n1nnc2cc(Cl)ccc21` [Compound no. 359, (5-chloro-1-benzo[d][1,2,3]triazol-1-yl)(4,4-dimethyloxazolidin-3-yl)methanone], at FAAH [1], the “In Vitro 100 nM (FAAH activity, % of control)” value is 1.4 % of control. Further, the “In Vivo BRh 3 mg·kg 8 h (remaining FAAH activity, % of control)” value on FAAH [2] is 2.5 % of control. Besides, the “In Vivo LVh 3 mg·kg 8 h (remaining FAAH activity, % of control)” value on FAAH [3] was 1.7 % of control.
For `CN(C(=O)n1cnc(-c2cccc([N+](=O)[O-])c2)c1)C1CCCCC1` [Compound 275, N-cyclohexyl-N-methyl-4-(3-nitrophenyl)-1H-imidazole-1-carboxamide], the “In Vitro 100 nM (FAAH activity, % of control)” value on FAAH [1] was 43.8 % of control. Besides, at FAAH [2], the “In Vivo BRh 3 mg·kg 8 h (remaining FAAH activity, % of control)” value is recorded as 12.8 % of control. Moreover, the “In Vivo LVh 3 mg·kg 8 h (remaining FAAH activity, % of control)” value at FAAH [3] is listed as 2.4 % of control.
In the case of `CC1(C)COCN1C(=O)n1cnc(-c2cccc(O)c2)c1` [Compound 347, (4,4-dimethyloxazolidin-3-yl)(4-(3-hydroxyphenyl)-1H-imidazol-1-yl)methanone], the “In Vitro 100 nM (FAAH activity, % of control)” value at FAAH [1] is reported as 109.6 % of control. Moreover, the “In Vivo BRh 3 mg·kg 8 h (remaining FAAH activity, % of control)” value on FAAH [2] is 76.6 % of control. Also, on FAAH [3], the “In Vivo LVh 3 mg·kg 8 h (remaining FAAH activity, % of control)” value is recorded as 24.5 % of control.
Take `CN(C(=O)n1nnc2ccccc21)C1CCC2(CC1)OCC(C)(C)CO2` [Compound 143, N-(3,3-dimethyl-1,5-dioxaspiro[5.5]undec-9-yl)-N-methyl-1H-benzotriazole-1-carboxamide]: on FAAH [1], the “In Vitro FAAH activity, 100 nM” value was 2.5 % of control. In addition, on FAAH [2], the “In Vivo BRh 3 mg/kg 8 h, remaining FAAH activity” value is recorded as 0.4 % of control. The “In Vivo LVh 3 mg/kg 8 h, remaining FAAH activity” value on FAAH [3] is recorded as 0.7 % of control.
With `CC1(C)COCN1C(=O)n1nnc2ccc(-c3ccccc3)cc21` [Compound no. 361, (4,4-dimethyloxazolidin-3-yl)(6-phenyl-1H-benzo[d][1,2,3]triazol-1-yl)methanone], the “In Vitro 100 nM (FAAH activity, % of control)” value at FAAH [1] is recorded as 1.3 % of control. At FAAH [2], the “In Vivo BRh 3 mg·kg 8 h (remaining FAAH activity, % of control)” value is reported as 6.3 % of control. The “In Vivo LVh 3 mg·kg 8 h (remaining FAAH activity, % of control)” value at FAAH [3] is 1.4 % of control.
As for `CC1(C)COCN1C(=O)n1cnc(-c2ccc(Cl)cc2)n1` [Compound 189, (3-(4-chlorophenyl)-1H-1,2,4-triazol-1-yl)(4,4-dimethyloxazolidin-3-yl)methanone], on FAAH [1], the “In Vitro FAAH activity, 100 nM” value is recorded as 98.5 % of control. In addition, the “In Vivo BRh 3 mg/kg 8 h, remaining FAAH activity” value on FAAH [2] was 105.9 % of control. Further, the “In Vivo LVh 3 mg/kg 8 h, remaining FAAH activity” value on FAAH [3] was 87.6 % of control.
Consider `O=C(N1CCN(Cc2ccc3c(c2)OCO3)CC1)n1nnc2ccccc21.O=C(O)C(=O)O` [Compound 48, (1H-benzo[d][1,2,3]triazol-1-yl)(4-(benzo[d][1,3]dioxol-5-ylmethyl)piperazin-1-yl)methanone oxalate], for which, at FAAH [1], the “In Vitro FAAH activity, 100 nM” value is reported as 0.1 % of control. The “In Vivo BRh 30 mg/kg 1 h, remaining FAAH activity” value at FAAH [2] (30 mg/kg, 1 h) is recorded as 21.8 % of control. Further, the “In Vivo LVh 30 mg/kg 1 h, remaining FAAH activity” value on FAAH [3] (30 mg/kg, 1 h) was 20.1 % of control.
With `O=C(NC12CC3CC(CC(C3)C1)C2)n1nnc2ccccc21` [Compound 126, N-adamantyl-1H-benzo[d][1,2,3]triazole-1-carboxamide], the “In Vitro FAAH activity, 100 nM” value at FAAH [1] is listed as 0 % of control. The “In Vivo BRh 3 mg/kg 8 h, remaining FAAH activity” value on FAAH [2] was 0.2 % of control. Also, the “In Vivo LVh 3 mg/kg 8 h, remaining FAAH activity” value at FAAH [3] is listed as 2.2 % of control.

The record behind these values is patent US9353082B2, “Pharmaceutical compounds” (BIAL—PORTELA & CA, S.A., priority 2008, dated 2016).
